The source made the active and inactive calls. How the calls were made is not given here.
System: CCRIS mutagenicity, Ames/micronucleus/aberration tests
Test: CCRIS mutagenicity studies
[1] = Test System: AMES SALMONELLA TYPHIMURIUM, Strain/Indicator: TA98, Metabolic Activation: NONE, Method: PREINCUBATION
[2] = Test System: AMES SALMONELLA TYPHIMURIUM, Strain/Indicator: TA100, Metabolic Activation: NONE, Method: PREINCUBATION
[3] = Test System: AMES SALMONELLA TYPHIMURIUM, Strain/Indicator: TA1535, Metabolic Activation: NONE, Method: PREINCUBATION
[4] = Test System: AMES SALMONELLA TYPHIMURIUM, Strain/Indicator: TA1537, Metabolic Activation: NONE, Method: PREINCUBATION

Measured: mutagenic call

C[Si](C)(Cl)Cl
inactive: Test System: AMES SALMONELLA TYPHIMURIUM, Strain/Indicator: TA98, Metabolic Activation: HAMSTER, LIVER, S-9, AROCLOR 1254, Method: PREINCUBATION inactive; negative | [1] inactive; negative | Test System: AMES SALMONELLA TYPHIMURIUM, Strain/Indicator: TA98, Metabolic Activation: NONE, Method: STANDARD PLATE inactive; negative | Test System: AMES SALMONELLA TYPHIMURIUM, Strain/Indicator: TA98, Metabolic Activation: RAT LIVER S-9, AROCLOR 1254, Method: STANDARD PLATE inactive; negative | Test System: AMES SALMONELLA TYPHIMURIUM, Strain/Indicator: TA98, Metabolic Activation: RAT, LIVER, S-9, AROCLOR 1254, Method: PREINCUBATION inactive; negative | Test System: AMES SALMONELLA TYPHIMURIUM, Strain/Indicator: TA100, Metabolic Activation: HAMSTER, LIVER, S-9, AROCLOR 1254, Method: PREINCUBATION inactive; negative | [2] inactive; negative | Test System: AMES SALMONELLA TYPHIMURIUM, Strain/Indicator: TA100, Metabolic Activation: NONE, Method: STANDARD PLATE inactive; negative | Test System: AMES SALMONELLA TYPHIMURIUM, Strain/Indicator: TA100, Metabolic Activation: RAT LIVER S-9, AROCLOR 1254, Method: STANDARD PLATE inactive; negative | Test System: AMES SALMONELLA TYPHIMURIUM, Strain/Indicator: TA100, Metabolic Activation: RAT, LIVER, S-9, AROCLOR 1254, Method: PREINCUBATION inactive; negative | Test System: AMES SALMONELLA TYPHIMURIUM, Strain/Indicator: TA1535, Metabolic Activation: HAMSTER, LIVER, S-9, AROCLOR 1254, Method: PREINCUBATION inactive; negative | [3] inactive; negative | Test System: AMES SALMONELLA TYPHIMURIUM, Strain/Indicator: TA1535, Metabolic Activation: NONE, Method: STANDARD PLATE inactive; negative | Test System: AMES SALMONELLA TYPHIMURIUM, Strain/Indicator: TA1535, Metabolic Activation: RAT LIVER S-9, AROCLOR 1254, Method: STANDARD PLATE inactive; negative | Test System: AMES SALMONELLA TYPHIMURIUM, Strain/Indicator: TA1535, Metabolic Activation: RAT, LIVER, S-9, AROCLOR 1254, Method: PREINCUBATION inactive; negative | Test System: AMES SALMONELLA TYPHIMURIUM, Strain/Indicator: TA1537, Metabolic Activation: HAMSTER, LIVER, S-9, AROCLOR 1254, Method: PREINCUBATION inactive; negative | [4] inactive; negative | Test System: AMES SALMONELLA TYPHIMURIUM, Strain/Indicator: TA1537, Metabolic Activation: NONE, Method: STANDARD PLATE inactive; negative | Test System: AMES SALMONELLA TYPHIMURIUM, Strain/Indicator: TA1537, Metabolic Activation: RAT LIVER S-9, AROCLOR 1254, Method: STANDARD PLATE inactive; negative | Test System: AMES SALMONELLA TYPHIMURIUM, Strain/Indicator: TA1537, Metabolic Activation: RAT, LIVER, S-9, AROCLOR 1254, Method: PREINCUBATION inactive; negative | Test System: AMES SALMONELLA TYPHIMURIUM, Strain/Indicator: TA1538, Metabolic Activation: HAMSTER, LIVER, S-9, AROCLOR 1254, Method: PREINCUBATION inactive; negative | Test System: AMES SALMONELLA TYPHIMURIUM, Strain/Indicator: TA1538, Metabolic Activation: NONE, Method: PREINCUBATION inactive; negative | Test System: AMES SALMONELLA TYPHIMURIUM, Strain/Indicator: TA1538, Metabolic Activation: NONE, Method: STANDARD PLATE inactive; negative | Test System: AMES SALMONELLA TYPHIMURIUM, Strain/Indicator: TA1538, Metabolic Activation: RAT LIVER S-9, AROCLOR 1254, Method: STANDARD PLATE inactive; negative | Test System: AMES SALMONELLA TYPHIMURIUM, Strain/Indicator: TA1538, Metabolic Activation: RAT, LIVER, S-9, AROCLOR 1254, Method: PREINCUBATION inactive; negative | Test System: E. COLI, Strain/Indicator: P3078(POL A-), Metabolic Activation: NONE, Method: SPOT TEST inactive; negative | Test System: E. COLI, Strain/Indicator: P3078 POLA, Metabolic Activation: RAT LIVER S-9, AROCLOR 1254, Method: SPOT TEST inactive; negative | Test System: E. COLI, Strain/Indicator: W3110, Metabolic Activation: NONE, Method: SPOT TEST inactive; negative | Test System: E. COLI, Strain/Indicator: W3110, Metabolic Activation: RAT LIVER S-9, AROCLOR 1254, Method: SPOT TEST inactive; negative | Test System: MOUSE LYMPHOMA, Strain/Indicator: L5178Y (TK+/TK-), Metabolic Activation: RAT, LIVER, S-9, AROCLOR 1254, Method: SUSPENSION/PLATE inactive; negative. reevaluation of results: inconclusive | Test System: MOUSE LYMPHOMA, Strain/Indicator: L5178Y (TK+/TK-), Metabolic Activation: RAT, LIVER, S-9, Method: SUSPENSION/PLATE inactive; negative

CCCCCCCCCCC1CO1 (configuration not stated)
inactive: Test System: AMES SALMONELLA TYPHIMURIUM, Strain/Indicator: TA97, Metabolic Activation: HAMSTER, LIVER, S-9, AROCLOR 1254 (30%), Method: PREINCUBATION inactive; negative | Test System: AMES SALMONELLA TYPHIMURIUM, Strain/Indicator: TA97, Metabolic Activation: NONE, Method: PREINCUBATION inactive; negative | Test System: AMES SALMONELLA TYPHIMURIUM, Strain/Indicator: TA97, Metabolic Activation: RAT, LIVER, S-9, AROCLOR 1254 (10% & 30%), Method: PREINCUBATION inactive; negative | Test System: AMES SALMONELLA TYPHIMURIUM, Strain/Indicator: TA98, Metabolic Activation: HAMSTER, LIVER, S-9, AROCLOR 1254 (10% & 30%), Method: PREINCUBATION inactive; negative | [1] inactive; negative | Test System: AMES SALMONELLA TYPHIMURIUM, Strain/Indicator: TA98, Metabolic Activation: RAT, LIVER, S-9, AROCLOR 1254 (10% & 30%), Method: PREINCUBATION inactive; negative | Test System: AMES SALMONELLA TYPHIMURIUM, Strain/Indicator: TA100, Metabolic Activation: HAMSTER, LIVER, S-9, AROCLOR 1254 (10% & 30%), Method: PREINCUBATION inactive; negative | [2] inactive; negative | Test System: AMES SALMONELLA TYPHIMURIUM, Strain/Indicator: TA100, Metabolic Activation: RAT, LIVER, S-9, AROCLOR 1254 (10% & 30%), Method: PREINCUBATION inactive; negative | Test System: AMES SALMONELLA TYPHIMURIUM, Strain/Indicator: TA1535, Metabolic Activation: HAMSTER, LIVER, S-9, AROCLOR 1254 (10% & 30%), Method: PREINCUBATION inactive; negative | [3] inactive; negative | Test System: AMES SALMONELLA TYPHIMURIUM, Strain/Indicator: TA1535, Metabolic Activation: RAT, LIVER, S-9, AROCLOR 1254 (10% & 30%), Method: PREINCUBATION inactive; negative | Test System: AMES SALMONELLA TYPHIMURIUM, Strain/Indicator: TA1537, Metabolic Activation: HAMSTER, LIVER, S-9, AROCLOR 1254 (10% & 30%), Method: PREINCUBATION inactive; negative | [4] inactive; negative | Test System: AMES SALMONELLA TYPHIMURIUM, Strain/Indicator: TA1537, Metabolic Activation: RAT, LIVER, S-9, AROCLOR 1254 (10% & 30%), Method: PREINCUBATION inactive; negative | Test System: UDS MOUSE EPIDERMIS IN VIVO/IN VITRO, Strain/Indicator: HOS:HR-1/THYMIDINE INCORPORATION, Metabolic Activation: NONE, Method: LIQUID SCINTILLATION inactive; negative
